Measured values from US8445636B2, “Antimicrobial and anticancer lipopeptides” (Yeda Research & Development Co. Ltd., priority 2003, dated 2013).
Converted amounts (≈) assume the structure as drawn. Read-outs that look alike come from different tables or passages of the source. Non-standard residues stand in square brackets, D forms with d. Residues, ends and D or L forms follow the SMILES beside them. *: point of attachment. Palmitoyl = CCCCCCCCCCCCCCCC(=O)*

What was measured:
Type in all cases: cell-based
[1] = test system: Cryptococcus neoformans ATCC MYA-422; assay: microbe, parasite or virus in culture
[2] = test system: Candida albicans ATCC 10231; assay: microbe, parasite or virus in culture; conditions: for MIC: read-out: Minimal Inhibitory Concentration, Candida Albicans (ATCC 10231)
How it was run: (§1)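 In this assay, each strain, prepared at 1×10^4 CFU/ml before mixing, met serial twofold peptide dilutions in RPMI 1640 buffered with 0.165 M MOPS. Unless noted, pH was 7.4; a pH 5.5 condition was also run. After 24-48 h incubation (35 °C, agitated), wells were scored at 620 nm for total inhibition.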

[3] = test system: Aspergillus fumigatus ATCC 26430; assay: microbe, parasite or virus in culture
[4] = test system: Aspergillus niger ATCC 9642
Description: The antifungal activity of the lipopeptides was examined in sterile 96-well plates (Nunc F96 microtiter plates) in a final volume of 200 μL as follows: 100 µl of a suspension containing fungi at a concentration of 1×10^4 Colony-Forming Units (CFU)/ml in culture medium (RPMI 1640, 0.165 M MOPS with L-glutamine, without NaHCO3) at pH 7.4 or pH 5.5 (adjustment of the pH was done by diluted solutions of HCl and NaOH) were added to 100 μl of water containing the peptide in serial 2-fold dilutions in water. The fungi were incubated in the presence of the lipopeptides for 24-48 h at 35° C. in a Binder KB115 incubator under agitation. Growth inhibition was determined by measuring the absorbance at 620 nm with a Microplate autoreader E1309 (Bio-Tek Instruments). Antifungal activity is expressed as the minimal inhibitory concentration (MIC), the concentration at which 100% inhibition of fungi growth was observed after the incubation time mentioned above. The fungi used were: Aspergillus niger ATCC 9642, Candida albicans ATCC 10231 and Cryptococcus neoformans ATCC 66031. If not indicated otherwise, the fungi growth was detected at pH 7.4.

[5] = test system: Acinetobacter baumannii ATCC 19606
How it was run: (§2)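 MIC = lowest concentration with 100% growth inhibition, judged from A600 after 18-20 h incubation at 37° C. Bacteria at 1×10^6 CFU/ml in LB (pH 7.4 unless pH 5.5 stated) combined with equal volume of serially 2-fold diluted lipopeptide.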

[6] = test system: Pseudomonas aeruginosa ATCC 27853
How it was run: as §2

[7] = test system: Staphylococcus aureus ATCC 6538P
How it was run: as §2

[8] = test system: Escherichia coli ATCC 25922
How it was run: as §2

B. subtilis ATCC 6051 = test system: B. subtilis ATCC 6051
[9] = test system: Aspergillus flavus ATCC 9643
[10] = test system: Cryptococcus neoformans ATCC 66031; assay: microbe, parasite or virus in culture; conditions: Table 10; pH 7.4
How it was run: as §1

[11] = test system: Enterobacter cloacae ATCC 49141; conditions: Table 4; pH 7.4
How it was run: as §2

[12] = test system: methicilin-resistant Staphylococcus aureus (MRSA) ATCC 700698; conditions: Table 4; pH 7.4
How it was run: as §2

[13] = test system: Enterococcus faecalis ATCC 29212; conditions: Table 4; pH 7.4
How it was run: as §2

[14] = test system: human red blood cells (hRBC); assay: Hemolytic activity, release of hemoglobin at 540 nm
Description: Fresh human red blood cells (hRBC) with EDTA were rinsed 3 times with PBS (35 mM phosphate buffer/0.15 M NaCl, pH 7.3) by centrifugation for 10 min at 800 g and resuspended in PBS. Peptides dissolved in PBS were then added to 50 μl of a solution of the stock hRBC in PBS to reach a final volume of 100 μl (final erythrocyte concentration, 4% v/v). The resulting suspension was incubated under agitation for 60 min at 37° C. The samples were then centrifuged at 800×g for 10 min. Release of hemoglobin was monitored by measuring the absorbance of the supernatant at 540 nm. Controls for zero hemolysis (blank) and 100% hemolysis consisted of hRBC suspended in PBS and Triton 1%, respectively.

[15] = Table 14, lipopeptides vs parent peptides, pH 7.4
[16] = Table 8, lipopeptides vs parent peptides, pH 7.4

SMILES	Minimal Inhibitory Concentration, Cryptococcus neoformans (ATCC MYA-422) ([1]; ATCC MYA-422, pH 7.4)	MIC ([2]; ATCC 10231, pH 7.4)	Minimal Inhibitory Concentration, Aspergillus fumigatus (ATCC 26430) ([3]; ATCC 26430, pH 7.4)	Minimal Inhibitory Concentration, Aspergillus niger (ATCC 9642) ([4]; ATCC 9642, pH 7.4)	Minimal Inhibitory Concentration, A. baumannii ATCC 19606 ([5]; ATCC 19606, pH 7.4)	Minimal Inhibitory Concentration, P. aeruginosa ATCC 27853 ([6]; ATCC 27853, pH 7.4)	Minimal Inhibitory Concentration, S. aureus ATCC 6538P ([7]; ATCC 6538, pH 7.4)	Minimal Inhibitory Concentration, E. coli (ATCC 25922) ([8]; ATCC 25922, pH 7.4)	Minimal Inhibitory Concentration, B. subtilis (ATCC 6051) (B. subtilis ATCC 6051; ATCC 6051, pH 7.4)	Minimal Inhibitory Concentration, Aspergillus flavus (ATCC 9643) ([9]; ATCC 9643, pH 7.4)	Minimal Inhibitory Concentration, Cryptococcus neoformans (ATCC MYA-422) [1, 15]	MIC [2, 15]	Minimal Inhibitory Concentration, Aspergillus fumigatus (ATCC 26430) [3, 15]	Minimal Inhibitory Concentration, Aspergillus niger (ATCC 9642) [4, 15]	Minimal Inhibitory Concentration, A. baumannii ATCC 19606 [5, 16]	Minimal Inhibitory Concentration, P. aeruginosa ATCC 27853 [6, 16]	Minimal Inhibitory Concentration, S. aureus ATCC 6538P [7, 16]	Minimal Inhibitory Concentration, E. coli (ATCC 25922) [8, 16]	Minimal Inhibitory Concentration, B. subtilis (ATCC 6051) (B. subtilis ATCC 6051; [16])	Minimal Inhibitory Concentration, Aspergillus flavus (ATCC 9643) [9, 15]	also measured
CCCCCCCCCCCCCCCC(=O)N[C@@H](CCCCN)C(=O)N[C@H](C(=O)N[C@@H](C(=O)N[C@@H](C(=O)N[C@@H](CCCCN)C(=O)N[C@H](C(=O)N[C@H](C(=O)N[C@@H](C(=O)N[C@@H](CCCCN)C(=O)N[C@@H](C(=O)N[C@H](C(=O)N[C@@H](CCCCN)C(N)=O)C(C)C)C(C)C)C(C)C)C(C)C)C(C)C)C(C)C)C(C)C)C(C)C [lipopeptide 7, (CH3—(CH2)14—CO—)-Lys-Val-D-Val-D-Val-Lys-Val-Val-D-Val-Lys-D-Val-Val-Lys-NH2] (Palmitoyl-KV[dV][dV]KVV[dV]K[dV]VK-NH2)	3.125 µM	3.125 µM (≈ 4.88 µg/mL)	>100 µM	>100 µM	>100 µM	>100 µM	>100 µM	>100 µM	>100 µM	>100 µM											
CCCCCCCCCCCCCCCC(=O)N[C@@H](CCCCN)C(=O)N[C@@H](C)C(=O)N[C@H](C)C(=O)N[C@H](C)C(=O)N[C@@H](CCCCN)C(=O)N[C@@H](C)C(=O)N[C@@H](C)C(=O)N[C@H](C)C(=O)N[C@@H](CCCCN)C(=O)N[C@H](C)C(=O)N[C@@H](C)C(=O)N[C@@H](CCCCN)C(N)=O [lipopeptide 5, (CH3—(CH2)14—CO—)-Lys-Ala-D-Ala-D-Ala-Lys-Ala-Ala-D-Ala-Lys-D-Ala-Ala-Lys-NH2] (Palmitoyl-KA[dA][dA]KAA[dA]K[dA]AK-NH2)											1.56 µM	12.5 µM (≈ 16.7 µg/mL)	100 µM	10 µM	6.25 µM	6.25 µM	12.5 µM	6.25 µM	3.125 µM	80 µM	Minimal Inhibitory Concentration, C. neoformans ATCC 66031 [10]: 1.56 µM; Minimal Inhibitory Concentration, C. albicans ATCC 10231 ([2]; Table 10, pH 7.4): 12.5 µM; Minimal Inhibitory Concentration, A. fumigatus ATCC 26430 ([3]; Table 10, pH 7.4): 100 µM; Minimal Inhibitory Concentration, A. Baumaannii ([5]; Table 4, pH 7.4): 6.25 µM; Minimal Inhibitory Concentration, E. cloacae [11]: 25 µM; Minimal Inhibitory Concentration, S. aureus (MRSA) [12]: 12.5 µM; Minimal Inhibitory Concentration, P. Aeruginosa ([6]; Table 4, pH 7.4): 6.25 µM; Minimal Inhibitory Concentration, E. faecalis [13]: 12.5 µM; Minimal Inhibitory Concentration, S. aureus ([7]; Table 4, pH 7.4): 12.5 µM; Minimal Inhibitory Concentration, E. coli ([8]; Table 4, pH 7.4): 6.25 µM; hemolytic activity ([14]; at concentrations lower than 12 μM, human red blood cells (FIGS. 1-5)): do not exhibit significant hemolytic activity; hemolytic activity ([14]; at concentrations lower than 12.5 μM, human red blood cells, 1 h): not hemolytic
C[C@H](NC(=O)[C@H](C)NC(=O)[C@H](CCCCN)NC(=O)[C@@H](C)NC(=O)[C@@H](C)NC(=O)[C@H](C)NC(=O)[C@@H](N)CCCCN)C(=O)N[C@H](C)C(=O)N[C@@H](CCCCN)C(=O)N[C@H](C)C(=O)N[C@@H](C)C(=O)N[C@@H](CCCCN)C(N)=O [DK4A8, reference compound] (H-KA[dA][dA]KAA[dA]K[dA]AK-NH2; N-terminus assumed)											>100 µM	>100 µM	>100 µM	>100 µM	>100 µM	>100 µM	>100 µM	>100 µM	>100 µM	>100 µM	
CC(C)[C@H](NC(=O)[C@H](CCCCN)NC(=O)[C@H](NC(=O)[C@H](NC(=O)[C@@H](NC(=O)[C@@H](N)CCCCN)C(C)C)C(C)C)C(C)C)C(=O)N[C@H](C(=O)N[C@@H](C(=O)N[C@@H](CCCCN)C(=O)N[C@@H](C(=O)N[C@H](C(=O)N[C@@H](CCCCN)C(N)=O)C(C)C)C(C)C)C(C)C)C(C)C [DK4V8, reference compound] (H-KV[dV][dV]KVV[dV]K[dV]VK-NH2; N-terminus assumed)	50 µM	>100 µM	>100 µM	>100 µM	>100 µM	>100 µM	>100 µM	>100 µM	60 µM	>100 µM											
NCCCC[C@@H](N)C(=O)NCC(=O)NCC(=O)NCC(=O)N[C@H](CCCCN)C(=O)NCC(=O)NCC(=O)NCC(=O)N[C@H](CCCCN)C(=O)NCC(=O)NCC(=O)N[C@H](CCCCN)C(N)=O [DK4G8, reference compound] (H-[dK]GGG[dK]GGG[dK]GG[dK]-NH2; N-terminus assumed)	>100 µM	>100 µM	>100 µM	>100 µM	>100 µM	>100 µM	>100 µM	>100 µM	>100 µM	>100 µM											
